Calls of active or inactive are those of the source. No rule for the calls is given here.
Tested on: CCRIS mutagenicity, Ames/micronucleus/aberration tests
Experiment: CCRIS mutagenicity studies
[1] = Test System: AMES SALMONELLA TYPHIMURIUM, Strain/Indicator: TA100, Metabolic Activation: NONE, Method: PREINCUBATION
[2] = Test System: AMES SALMONELLA TYPHIMURIUM, Strain/Indicator: TA98, Metabolic Activation: NONE, Method: PREINCUBATION

## CN(OC(=O)c1ccccc1)c1ccc(N=Nc2ccccc2)cc1
Test System: AMES SALMONELLA TYPHIMURIUM, Strain/Indicator: TA98, Metabolic Activation: RAT, LIVER, S-9, KC500 OR PHENOBARBITAL, Method: LIQUID SUSPENSION
  mutagenic call: active; positive
Test System: AMES SALMONELLA TYPHIMURIUM, Strain/Indicator: TA100, Metabolic Activation: RAT, LIVER, S-9, KC500 OR PHENOBARBITAL, Method: LIQUID SUSPENSION
  mutagenic call: active; positive

## CCOC(=O)N(CCCC(=O)c1cccnc1)N=O
[1]
  mutagenic call: active; positive

## N.NC1CCCC1.O=C([O-])CC(O)C(=O)[O-].[Pt+2] (stereo not given)
End Point: IN VIVO MICRONUCLEUS, Test System: BONE MARROW, Species: MOUSE, Strain/Sex: WILD TYPE/MALE, Route: INTRAPERITONEAL
  mutagenic call: active; positive

## CCOc1ccc(N=Nc2ccc(-c3ccc(N=Nc4c(O)ccc5cc(S(=O)(=O)O)cc(S(=O)(=O)O)c45)c(C)c3)cc2C)cc1
Test System: AMES SALMONELLA TYPHIMURIUM, Strain/Indicator: TA98, Metabolic Activation: HAMSTER, LIVER, S-9, AROCLOR 1254 (10%), Method: PREINCUBATION
  mutagenic call: inactive; negative
[2]
  mutagenic call: inactive; negative
Test System: AMES SALMONELLA TYPHIMURIUM, Strain/Indicator: TA98, Metabolic Activation: RAT, LIVER, S-9, AROCLOR 1254 (10%), Method: PREINCUBATION
  mutagenic call: inactive; negative
Test System: AMES SALMONELLA TYPHIMURIUM, Strain/Indicator: TA100, Metabolic Activation: HAMSTER, LIVER, S-9, AROCLOR 1254 (10%), Method: PREINCUBATION
  mutagenic call: inactive; negative
[1]
  mutagenic call: inactive; negative
Test System: AMES SALMONELLA TYPHIMURIUM, Strain/Indicator: TA100, Metabolic Activation: RAT, LIVER, S-9, AROCLOR 1254 (10%), Method: PREINCUBATION
  mutagenic call: inactive; negative
Test System: AMES SALMONELLA TYPHIMURIUM, Strain/Indicator: TA1535, Metabolic Activation: HAMSTER, LIVER, S-9, AROCLOR 1254 (10%), Method: PREINCUBATION
  mutagenic call: inactive; negative
Test System: AMES SALMONELLA TYPHIMURIUM, Strain/Indicator: TA1535, Metabolic Activation: NONE, Method: PREINCUBATION
  mutagenic call: inactive; negative
Test System: AMES SALMONELLA TYPHIMURIUM, Strain/Indicator: TA1535, Metabolic Activation: RAT, LIVER, S-9, AROCLOR 1254 (10%), Method: PREINCUBATION
  mutagenic call: inactive; negative
Test System: AMES SALMONELLA TYPHIMURIUM, Strain/Indicator: TA1537, Metabolic Activation: HAMSTER, LIVER, S-9, AROCLOR 1254 (10%), Method: PREINCUBATION
  mutagenic call: inactive; negative
Test System: AMES SALMONELLA TYPHIMURIUM, Strain/Indicator: TA1537, Metabolic Activation: NONE, Method: PREINCUBATION
  mutagenic call: inactive; negative
Test System: AMES SALMONELLA TYPHIMURIUM, Strain/Indicator: TA1537, Metabolic Activation: RAT, LIVER, S-9, AROCLOR 1254 (10%), Method: PREINCUBATION
  mutagenic call: inactive; negative
Test System: AMES SALMONELLA TYPHIMURIUM, Strain/Indicator: TA1538, Metabolic Activation: RAT, LIVER, S-9, AROCLOR 1254, Method: STANDARD PLATE
  mutagenic call: active; positive

## O=[N+]([O-])c1c2ccccc2c([N+](=O)[O-])c2ccccc12
Test System: AMES SALMONELLA TYPHIMURIUM, Strain/Indicator: TA98, Metabolic Activation: NONE, Method: STANDARD PLATE
  mutagenic call: inactive; negative

## [Cl][Hg].[Cl][Hg]
End Point: IN VIVO MICRONUCLEUS, Test System: BONE MARROW, Species: HAMSTER, Strain/Sex: SYRIAN/MALE, Route: INTRAPERITONEAL
  mutagenic call: inactive; negative

## CC(=O)Nc1ccc(Cc2ccc(N)c(Cl)c2)cc1Cl
[1]
  mutagenic call: inactive; negative
Test System: AMES SALMONELLA TYPHIMURIUM, Strain/Indicator: TA100, Metabolic Activation: RAT, LIVER, S-9, AROCLOR 1254 (50, 100 OR 200 µL), Method: PREINCUBATION
  mutagenic call: active; positive

## CN(C)C(=N)N(C)C
[2]
  mutagenic call: inactive; negative
Test System: AMES SALMONELLA TYPHIMURIUM, Strain/Indicator: TA98, Metabolic Activation: RAT, LIVER, S-9, PCB, Method: PREINCUBATION
  mutagenic call: inactive; negative
[1]
  mutagenic call: inactive; negative
Test System: AMES SALMONELLA TYPHIMURIUM, Strain/Indicator: TA100, Metabolic Activation: RAT, LIVER, S-9, PCB, Method: PREINCUBATION
  mutagenic call: inactive; negative
